Our source for the IC50 values is ChEMBL document CHEMBL3414556, “Targeting aldose reductase for the treatment of diabetes complications and inflammatory diseases: new insights and future directions” (J Med Chem, 2015).

For orientation: IC50 means the concentration that gives 50% inhibition.

Assay [1] deals with Aldo-keto reductase family 1 member B10 (Homo sapiens, UniProt O60218). Nature of the assay: Inhibition of wild-type N-terminal 6-His tagged AKR1B10 (unknown origin) expressed in Escherichia coli BL21(DE3) assessed as pyridine-3-aldehyde reduction by spectrophotometry.
Chain of Aldo-keto reductase family 1 member B10 (O60218 whole entry): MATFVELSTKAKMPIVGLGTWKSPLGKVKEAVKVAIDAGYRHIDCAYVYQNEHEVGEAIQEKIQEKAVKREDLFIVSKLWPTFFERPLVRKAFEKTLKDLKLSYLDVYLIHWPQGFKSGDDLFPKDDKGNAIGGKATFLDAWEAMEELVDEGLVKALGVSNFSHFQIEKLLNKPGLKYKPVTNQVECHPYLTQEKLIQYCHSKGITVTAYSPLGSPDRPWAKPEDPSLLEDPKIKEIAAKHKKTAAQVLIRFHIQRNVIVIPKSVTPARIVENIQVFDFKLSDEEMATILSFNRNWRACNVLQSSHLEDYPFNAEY
For assay [2], the target named is T1, Aldo-keto reductase family 1 member B1 (Homo sapiens, UniProt P15121). As to the kind of experiment: Inhibition of human AR by fluorescence assay.
For assay [3], the target named is T1, Aldo-keto reductase family 1 member B1. As to the kind of experiment: Inhibition of human AR.

Regarding `O=C(O)Cc1ccccc1Nc1c(Cl)cccc1Cl` [DICLOFENAC], the concentration for half-maximal inhibition (IC50) in assay [1] came to 1.9 µM.

`O=C(O)c1ccccc1Nc1cccc(C(F)(F)F)c1` [FLUFENAMIC ACID]: in assay [1], the half-inhibitory concentration (IC50) came out at 0.76 µM.

Turning to `Cc1cccc(Nc2ccccc2C(=O)O)c1C` [MEFENAMIC ACID], the concentration for half-maximal inhibition (IC50) was 1.6 µM in assay [1] and 77 µM in assay [2].

`CC(=O)Oc1ccccc1C(=O)Nc1ncc([N+](=O)[O-])s1` [NITAZOXANIDE] showed an IC50 in assay [3] of 8.22 µM.
